For this series, the system named is oligonucleotide complementary to the probe with the exception of the base complementary to the dI at position 15. Put plainly: Specificity of the array of probes: hybridization with a single-mismatch oligonucleotide. In kind it is binding.

[I] = hypoxanthine (inosine)

With “d(CAITICGTIITCCTITT) (DNA CANTNCGTNNTCCTNTT; DNA, [I] at 3, 5, 9, 10, 15, backbone not given here) [SEQ ID No. 32]”, the “hybridization with mismatched oligonucleotide” value (at the hybridization temperature chosen for all probes (between 61.1 and 54.13° C., preferably about 57.6° C.)) is given as “does not hybridize”. Further, the Tm (duplex with oligonucleotide mismatched opposite the dI at position 15 of the probe) was 49.4 °C.

The values above are taken from patent US20080075662A1, “Novel Method for Analyzing Nucleic Acid Et Use Thereof for Evaluating the Degree of Mrna Editing of the Serotonin 5-Ht2c Receptor” (priority 2002, published 2008).
